From PubChem BioAssay AID179 (DTP/NCI, 2004) come the findings set out here.

The structures appear in SMILES notation. Values joined by “and” are separate entries in the source; they are usually repeats but may differ in a detail not shown here. Equal values may be shown once. Active and inactive are the calls of the source.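 Rule for the calls: active = compounds giving half or more protection of infected cells from virus-caused growth loss, again on retest; inactive = the rest.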 Where a SMILES comes first, the peptide text is derived from it. The star is where a group is joined. Boc = CC(C)(C)OC(=O)*

This assay has as its system CEM cells HIV-1 protection, formazan growth assay. In words: NCI AIDS Antiviral Assay. The conditions noted are these: for IC50: measured here: growth of uninfected CEM cells. The essentials:
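Protection of CEM cells against HIV-1 measured as cell growth via soluble formazan read-out, with five concentrations tested on both infected and uninfected cells; failure to protect may reflect toxicity.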

`COc1ccc(/C=C2/SC(c3ccc(Cl)cc3)N(NC(=O)CCCCCCCCC(=O)NN3C(=O)/C(=C\c4ccc(OC)c(OC)c4)SC3c3ccc(Cl)cc3)C2=O)cc1OC` (stereo not drawn): the EC50 was 67.6 µM and the IC50 was determined as 182 µM.

Turning to `CC1CC[C@@H](C(C)C)[C@H](Oc2nnc(C3OC(CO)C(O)C3O)o2)C1` (stereo partly drawn), the EC50 is more than 200 µM and the IC50 was more than 200 µM.

`COC(=O)C1CCC(=O)N1CN(C(C)=O)c1ccccc1` (stereo not drawn): the EC50 is more than 200 µM and the IC50 was more than 200 µM.

`CC(=O)CC(C)(C)S(=O)(=O)O`: the EC50 is more than 200 µM and the IC50 is more than 200 µM.

Regarding `Cc1c(C#N)c2nnn(-c3ccccc3)c(=O)n2c1-c1ccccc1`, the EC50 was more than 200 µM and the IC50 came to 1.02 µM.

With `C[CH2][Sn]([CH2]C)([O]C(=O)c1cccc(OC)c1)[O][Sn]([CH2]C)([CH2]C)[O]C(=O)c1cccc(OC)c1`, the EC50 was more than 38.9 µM and the IC50 stood at 16.6 µM.

Consider `CC(=O)Nc1cc(S(=O)(=O)O)cc2c(N=Nc3ccc(C(=O)Nc4ccc(N=Nc5ccc(S(=O)(=O)O)cc5)cc4)cc3)c(S(=O)(=O)O)cc(O)c12`, for which the outcome was inactive.

Regarding `COC(=O)c1cc2c(nc1C)-c1ccccc1OS2(=O)=O`, the outcome was inactive.

For the compound `CSc1nnc2n1-c1ccccc1SCC2`, the EC50 was more than 1000 µM and the IC50 is 389 µM.

`CC1(C)CNC[C@@]2(C)OCCN(C(=O)OC(C)(C)C)CCO[C@]3(C)CNCC(C)(C)NC(=O)[C@@](C)(CNCC(C)(C)NC3=O)OCCN(C(=O)OC(C)(C)C)CCO[C@](C)(CNCC(C)(C)NC2=O)C(=O)N1`: the outcome was inactive.

As to `COc1ccc(-c2[nH]c3ccccc3c2CCNS(=O)(=O)c2ccc(C)cc2)cc1`, the result was inactive.

As to `CCCc1cc(=O)oc2c3c(c4c(c12)OC(C)(C)CC4)O[C@H](C)[C@@H](C)[C@@H]3O`, the EC50 was 0.316 µM and the IC50 turned out to be 8.13 µM.

`CC(=O)N(C(C)=O)c1ncc(-n2nc(-c3ccccc3)cc2-c2ccccc2)c(-c2ccccc2)n1`: the EC50 is more than 200 µM and the IC50 amounted to 115 µM.

For the compound `CC1CC2Oc3ccc(Cl)cc3C(=O)N2O1` (stereo not drawn), the EC50 is more than 200 µM and the IC50 is more than 200 µM.

As for `Cc1cc(C)nc(NS(=O)(=O)c2ccc(NC(=O)c3ccc(Cl)c4c(Nc5ccc(S(=O)(=O)N=C(N)N)cc5)c5ccccc5nc34)cc2)n1`, the EC50 is more than 35.5 µM and the IC50 came out at 30.9 µM.

On to `C=CCN(Cc1ccncc1)C(=O)C(O)(c1ccccc1)c1ccccc1`, for which the EC50 is more than 200 µM and the 50% inhibitory concentration (IC50) was found to be 186 µM.

As to `Cc1cccc(O)c1-c1nnc(CCCCCCCCc2nnc(-c3c(C)cccc3O)n2N)n1N`, the EC50 is more than 200 µM and the IC50 worked out at 2.95 µM.

With `CCOC(=O)C1C(c2ccc(F)cc2)C(C(=O)OCC)C(O)(C(F)(F)F)OC1(O)C(F)(F)F` (stereo not drawn), the result was inactive.

Turning to `Cc1cccc(C)c1NC(=O)CCC(=O)NNC(=O)c1cc(O)c2ccccc2c1`, the EC50 is more than 234 µM and the IC50 came to 33.9 µM.

For `CC(CCN1CCN(CCC(C)CC(C)(C)C)S1(=O)=O)CC(C)(C)C` (stereo not drawn), the outcome was inactive.

Turning to `COC(=O)c1ccc(NCc2cc(OC)ccc2OC)cc1`, the EC50 was more than 200 µM and the IC50 was 24 µM.

Regarding `CCCC(=O)C(CC)/C(CCC(=O)N(Cc1ccccc1)Cc1ccccc1)=N/NC(=O)C[N+](C)(C)C` (stereo not drawn), the result was inactive.

Consider `O=C(O)CCC(=O)NCCOC(=O)CCC(=O)O`, for which the EC50 is more than 955 µM and the IC50 is more than 955 µM.

On to `CCCCCCCCCCC(O)CCCCCCC(=O)O` (stereo not drawn), for which the outcome was inactive.

In the case of `CC(=O)NC1C(OCc2ccccc2)OC(CO)C(O)C1OC(C)C(=O)N[C@@H](C)C(=O)N[C@H](CCC(=O)OCCNc1c2ccccc2nc2cccc([N+](=O)[O-])c12)C(N)=O` (stereo partly drawn), the EC50 is more than 0.02 µM and the IC50 amounted to 0.000339 µM.

`CC1=C[C@H]2O[C@H]3C[C@H]4OC(=O)/C=C\C=C\C(=O)OCC[C@@H](C)C(O)C(=O)OC[C@@]2(CC1)[C@@]4(C)[C@]31CO1` (stereo partly drawn): the EC50 was more than 0.363 µM and the IC50 worked out at 0.0112 µM.

Regarding `COc1cccc(-c2cc(=O)c3cc(C)c(C)c(C(=O)O)c3o2)c1`, the outcome was inactive.

For `O=[N+]([O-])c1cc(C(F)(F)F)ccc1SSc1ccc(C(F)(F)F)cc1[N+](=O)[O-]`, the EC50 was more than 200 µM; the IC50 was 24.5 µM and 13.2 µM.

As for `CCC(=O)C(C)C(=O)C(=O)C(=O)OC` (stereo not drawn), the EC50 was more than 13.5 µM and the IC50 was more than 13.5 µM.

On to `O=S(=O)(O)CCCCS(=O)(=O)O`, for which the EC50 is more than 200 µM and the IC50 was more than 200 µM.

As to `O=[N+]([O-])c1ccc(N=Cc2ccccc2O)cc1`, the EC50 is more than 200 µM and the IC50 is 8.91 µM.

As to `O=C(Nc1cccc(C(F)(F)F)c1)c1cc(-c2ccccc2)nc(=S)[nH]1`, the EC50 is more than 661 µM and the IC50 was more than 661 µM.

As for `NCC1OC(OC2C(CO)OC(OC3C(O)C(N)CC(N)C3OC3OC(CO)C(O)CC3N)C2O)C(N)C(O)C1OC1OC(CO)C(O)C(O)C1O` (stereo not drawn), the result was inactive.

With `CNS(=O)(=O)NNS(=O)(=O)c1cccc([N+](=O)[O-])c1`, the EC50 is more than 83.2 µM and the IC50 was more than 83.2 µM.

Regarding `CC(C)(CN1CCCCC1)C(=O)/C=C/c1ccc(Cl)c(Cl)c1`, the EC50 was more than 33.1 µM and the IC50 came out at 3.09 µM.

As for `COc1cc2c(c(OC)c1OC)C(=O)[C@@H](O)[C@H]2N`, the EC50 was more than 200 µM and the IC50 is more than 100 µM.

As for `COc1cc(/C=C2\C=Cc3ccccc32)ccc1N(C)C`, the EC50 is more than 36.3 µM and the IC50 is 24 µM.

In the case of `CCOC(=O)[C@H]1Nc2ccc(Cl)cc2[C@H]2OCC[C@@H]12`, the EC50 was more than 178 µM and the half-maximal inhibitory concentration (IC50) was more than 178 µM.

In the case of `CCCCCCCCCCCCCP(=O)(OC)OC`, the result was inactive.

In the case of `CC(=O)N1C(Nc2ccccc2)CCN1c1ccccc1` (stereo not drawn), the EC50 was more than 200 µM and the IC50 was 11.2 µM.

As for `CCN(CC)CCOC(=O)c1c(C)oc2cc3c(C(=O)OCCN(CC)CC)c(C)oc3cc12`, the EC50 was more than 200 µM and the IC50 came to 6.03 µM.

As to `COc1ccc(N2C(=O)CC(C3CC(C(C)(C)C)CCC3=O)C2=O)cc1` (stereo not drawn), the EC50 is more than 200 µM and the IC50 was more than 200 µM.

`CC1=NOCC(=O)N1`: the EC50 was more than 2190 µM and the half-inhibitory concentration (IC50) was more than 2190 µM.

Regarding `Oc1c(CN2CCCCC2)ccc2ccccc12`, the EC50 was more than 200 µM and the IC50 was 186 µM.

For the compound `COc1ccccc1NC(=S)N/C=C(\C#N)C(=O)c1ccc2ccccc2c1`, the EC50 was more than 200 µM and the IC50 was found to be 37.2 µM.

`COc1cc(C2C(Cl)C(=O)N2NC(=O)c2ccccc2O)cc(OC)c1OC` (stereo not drawn): the EC50 is more than 45.7 µM and the IC50 was 3.98 µM.

For the compound `CC1OC(OCC2COC(O)(Oc3c(-c4ccc(O)c(O)c4)oc4cc(O)cc(O)c4c3=O)C(O)C2O)C(O)C(O)C1O` (stereo not drawn), the result was inactive.

As for `CC(C)C(NC(=O)OC(C)(C)C)C(=O)N1CCCC1C(=O)O` (stereo not drawn) (Boc-Val-Pro-OH; configuration not given here), the EC50 is more than 200 µM and the IC50 was more than 200 µM.

As to `C=CCCCCCCCCC(=O)NC(C)COC` (stereo not drawn), the EC50 was more than 200 µM and the IC50 was 107 µM.

On to `CC(C)N(CN1C(=O)N/C(=C/c2cccc(/C=C3/NC(=O)N(CN(C(C)C)C(C)C)C3=O)c2)C1=O)C(C)C`, for which the EC50 is more than 501 µM and the IC50 was determined as 75.9 µM.

Take `CN(C)CCCNC(=O)CCNC(=O)c1cc(NC(=O)c2cc(NC(=O)c3cc(NC(=O)CCCNC(=O)c4cc(NC(=O)c5cc(NC(=O)c6nccn6C)cn5C)cn4C)cn3C)cn2C)cn1C`: the result was inactive.

As for `Cc1ccc(S(=O)Cc2ccc(C(=O)O)cc2[N+](=O)[O-])cc1` (stereo not drawn), the outcome was inactive.

With `O=C(CCCn1ccnc1[N+](=O)[O-])NCCn1cnc([N+](=O)[O-])c1`, the EC50 was more than 200 µM and the IC50 was more than 200 µM.

Consider `CC1CCCN2C(=O)CN(c3ccccc3)CC(=O)N12` (stereo not drawn), for which the EC50 was more than 200 µM and the IC50 is more than 200 µM.

`Nc1c(C(=O)O)nnc2cc(Cl)ccc12`: the EC50 was more than 200 µM and the IC50 amounted to 66.1 µM.

`O=C(/C=C/c1ccc(O)c(O)c1)OC1CC(O)(C(=O)O)CC(O)C1O` (stereo not drawn) (tested in a mixture with another compound): the EC50 is more than 200 µM and the IC50 is 81.3 µM.

Consider `CCNC(=S)N/N=C(/c1ccc(OC)cc1)P(=O)(OCC)OCC`, for which the EC50 was more than 50.1 µM and the IC50 is more than 50.1 µM.

For the compound `NC(=O)/N=C1/CCC2C3CCCC2C13`, the result was inactive.

For the compound `N.N.N.N.N.[Cl-].[Co+3].c1ccc(-c2nn[n-]n2)cc1`, the EC50 is more than 692 µM and the IC50 was more than 692 µM.

Take `COc1ccc([C@@H]2CC(=O)NCCCCNCCCN2)cc1`: the EC50 was more than 200 µM and the IC50 is more than 200 µM.

As to `CCOC(=O)CSc1nc2ccccc2c(=O)n1N`, the EC50 is more than 200 µM and the IC50 was more than 200 µM.

As for `Oc1cc(O)c2c(c1)O[C@H](c1cc(O)c(O)c(O)c1)[C@H](O)C2`, the EC50 was more than 200 µM and the IC50 is 0.692 µM.

Consider `CC#CCC1CCC(OCC)=CC1=O` (stereo not drawn), for which the outcome was inactive.

Consider `CC1(C)OC2OC(C(O)CO)C(OC(=S)SSC(=S)OC3C(C(O)CO)OC4OC(C)(C)OC43)C2O1` (stereo not drawn), for which the EC50 is more than 200 µM and the IC50 came to 36.3 µM.

Turning to `CC(C)C(=O)NCC[C@@H](CNC(=O)OC(C)(C)C)NC(=O)OC(C)(C)C`, the EC50 was more than 200 µM and the IC50 was more than 200 µM.

For the compound `CC(CN(C)C)Nc1c2ccccc2nc2cccc([N+](=O)[O-])c12` (stereo not drawn), the EC50 is more than 2 µM and the IC50 stood at 0.977 µM.

Regarding `Nc1nc(Cl)cc(NCC2(CO)CC=CC2)n1`, the EC50 is more than 200 µM and the IC50 is more than 200 µM.

For `CCC1CN(C(=O)c2ccccc2)C(Cc2c[nH]c3ccccc23)C(=O)C1CC(=O)OC` (stereo not drawn), the EC50 was more than 200 µM and the IC50 worked out at 79.4 µM.

As to `Clc1cc2nc3[nH]c4ccccc4c3nc2cc1Cl`, the EC50 is more than 83.2 µM and the IC50 was more than 83.2 µM.

Take `O=C(O/N=C1/CCC/C1=C\c1ccccc1)c1ccccc1`: the outcome was inactive.
